Where two headings read alike, the source gives them in different places.
What was measured:
[1] = tested on: defective Achilles tendon model; assay: Biomechanical test of Achilles tendon (stiffness, tensile strength); format: in vivo, rats
[2] = tested on: defective Achilles tendon model; assay: Hydroxyproline content analysis of tendon tissue; format: in vivo, mouse
Protocol: All experiments using mice were conducted in compliance with the relevant laws and institutional guidelines of the Institutional Animal Care and Use Committee (IACUC) of Korea University Medical Center and received IACUC approval (Approval No. KOREA-2018-0049). […] […] 1 mg) and […] […] To hydrolyze the tendon tissue, 5 mg was immersed in a 6N HCl solution and then heated at 120° C. for 3 hours. After hydrolysis, the tendon tissue was centrifuged at 3000 rpm for 3 minutes, and the supernatant was collected and transferred to a 96-well plate. Thereafter, the 96-well plate was incubated in a dry oven at 60° C. for 12 hours. A Chloramine T reagent (6 μL) was mixed with an oxidation buffer (94 μL), and the mixture was added to each sample or a standard solution. The resulting solution was slowly transferred to a 96-well plate, and a p-dimethylaminobenzaldehyde reagent (100 μL) was added to each sample or standard, and then incubated at 60° C. for 90 minutes. The hydroxyproline content was measured at an optical density of […] using a Flash Multimode Reader (VarioskanTM, Thermo Scientific, USA).

[3] = tested on: anti-inflammatory cytokines IL-4 and IL-10; assay: RT-PCR of blood in defective Achilles tendon model: anti-inflammatory cytokines; format: in vivo, mice; settings: 4 weeks
[4] = cited from earlier work
[5] = in vivo; cited from earlier work

Cc1ccc(-c2cc(C(F)(F)F)nn2-c2ccc(S(N)(=O)=O)cc2)cc1 [CXB, Celecoxib]
stiffness ([1]; injected once per week): 16.4 N/mm | tensile strength ([1]; injected once per week): 12.5 MPa | stiffness ([1]; injected three times per week): 18.6 N/mm | hydroxyproline content ([2]; injected once per week): 15.3 µg/mg | hydroxyproline content ([2]; injected three times per week): 17.2 µg/mg | IL-4 expression increase compared with control group ([3]; treated once): 1.2 fold | IL-10 expression increase compared with control group ([3]; treated once): 1.3 fold | IL-4 expression increase compared with control group ([3]; treated three times): 1.3 fold | IL-10 expression increase compared with control group ([3]; treated three times): 1.5 fold

CC1(C)O[C@@H]2C[C@H]3[C@@H]4CCC5=CC(=O)C=C[C@]5(C)[C@@]4(F)[C@@H](O)C[C@]3(C)[C@]2(C(=O)CO)O1 [TCA, triamcinolone acetonide]
half-life ([4]; in vivo): 1.47 h | half-life of TCA without a delivery carrier [5]: 1.27 h

O=C(O)Cc1ccccc1Nc1c(Cl)cccc1Cl [diclofenac]
half-life ([4]; direct IA administration, reported by Larsen et al.): 5.2 h
